Legend:
[1] = Weight loss measured by TGA; assay type: physicochemical
[2] = Water content measured by KF titration; assay type: physicochemical

## Cc1nc2n(c(=O)c1CCN1CCC(c3noc4cc(F)ccc34)CC1)CCCC2O (centres unmarked) [Form II, 3-[2-[4-(6-fluorobenzo[d]isoxazol-3-yl)-1-piperidyl]ethyl]-7-hydroxy-4-methyl-1,5-diazabicyclo[4.4.0]deca-3,5-dien-2-one]
[1]; between 25-145° C.
  weight loss, as measured by TGA: about 0.4%
[2]
  water content, as measured by KF titration: about 0.5%

## Cc1nc2n(c(=O)c1CCN1CCC(c3noc4cc(F)ccc34)CC1)CCCC2O (centres unmarked) [Form V, 3-[2-[4-(6-fluorobenzo[d]isoxazol-3-yl)-1-piperidyl]ethyl]-7-hydroxy-4-methyl-1,5-diazabicyclo[4.4.0]deca-3,5-dien-2-one]
[1]; between 25-155° C.
  weight loss, as measured by TGA: about 0.1%
[2]
  water content, as measured by KF titration: about 0.3%

## Cc1nc2n(c(=O)c1CCN1CCC(c3noc4cc(F)ccc34)CC1)CCCC2O (centres unmarked) [Form III, 3-[2-[4-(6-fluorobenzo[d]isoxazol-3-yl)-1-piperidyl]ethyl]-7-hydroxy-4-methyl-1,5-diazabicyclo[4.4.0]deca-3,5-dien-2-one]
[1]; between 25-168° C.
  weight loss, as measured by TGA: about 19.2%
[2]
  water content, as measured by KF titration: about 0.2%

## Cc1nc2n(c(=O)c1CCN1CCC(c3noc4cc(F)ccc34)CC1)CCCC2O (centres unmarked) [Form I, 3-[2-[4-(6-fluorobenzo[d]isoxazol-3-yl)-1-piperidyl]ethyl]-7-hydroxy-4-methyl-1,5-diazabicyclo[4.4.0]deca-3,5-dien-2-one]
[1]; between 25-168° C.
  weight loss, as measured by TGA: about 0.6%
[2]
  water content, as measured by KF titration: about 0.5%

Source: US20080177067A1, “Crystal forms of 9-hydroxy-risperidone (paliperidone)” (priority 2006, published 2008)
